Laboratory results from patent publication US20250081967A1, “PESTICIDALLY ACTIVE HETEROCYCLIC DERIVATIVES WITH SULFOXIMINE CONTAINING SUBSTITUENTS” (SYNGENTA CROP PROTECTION AG, priority 2021, published 2025).

What was measured:
Format in all cases: in vivo
Plutella xylostella [1] = assay: Activity against Plutella xylostella (diamond back moth), artificial diet, L2 larvae; conditions: 120 h, application rate 200 ppm, 5 days after infestation, read-out: effect in at least one of the two categories (mortality or growth inhibition)
Description: Example B2: Activity Against Plutella xylostella (Diamond Back Moth)
24-well microtiter plates with artificial diet were treated with aqueous test solutions prepared from 10′000 ppm DMSO stock solutions by pipetting. After drying, the plates were infested with L2 larvae (10 to 15 per well). The samples were assessed for mortality and growth inhibition in comparison to untreated samples 5 days after infestation.

Bemisia tabaci = assay: Activity against Bemisia tabaci (cotton white fly), cotton leaf discs; conditions: foliar, 144 h, application rate 200 ppm, adult white flies, 6 days after incubation
Description: Example B6: Activity Against Bemisia tabaci (Cotton White Fly)
Cotton leaf discs were placed on agar in 24-well microtiter plates and sprayed with aqueous test solutions prepared from 10′000 ppm DMSO stock solutions. After drying the leaf discs were infested with adult white flies. The samples were checked for mortality 6 days after incubation.

[2] = system: Frankliniella occidentalis; assay: Activity against Frankliniella occidentalis (western flower thrips), sunflower leaf discs; conditions: foliar, 168 h, application rate 200 ppm, mixed ages, 7 days after infestation
Description: Example B8: Activity Against Frankliniella occidentalis (Western Flower Thrips)
Sunflower leaf discs were placed on agar in 24-well microtiter plates and sprayed with aqueous test solutions prepared from […] stock solutions. After drying the leaf discs were infested with a Frankliniella population of mixed ages. The samples were assessed for mortality 7 days after infestation.

Myzus persicae [3] = assay: Activity against Myzus persicae (green peach aphid), systemic activity, pea seedlings; conditions: Myzus persicae, 144 h, test rate 24 ppm; systemic; 6 days after placing seedlings in test solutions
Description: Example B5: Activity Against Myzus persicae (Green Peach Aphid) Systemic Activity
Roots of pea seedlings infested with an aphid population of mixed ages were placed directly in the aqueous test solutions prepared from 10′000 DMSO stock solutions. The samples were assessed for mortality 6 days after placing seedlings in test solutions.

Diabrotica balteata = assay: Activity against Diabrotica balteata (corn root worm), maize sprouts; conditions: 96 h, application rate 200 ppm, L2 larvae, 4 days after infestation, read-out: effect in at least one of the two categories (mortality or growth inhibition)
Description: Example B3: Activity Against Diabrotica Balteata (Corn Root Worm)
Maize sprouts placed onto an agar layer in 24-well microtiter plates were treated with aqueous test solutions prepared from 10′000 ppm DMSO stock solutions by spraying. After drying, the plates were infested with L2 larvae (6 to 10 per well). The samples were assessed for mortality and growth inhibition in comparison to untreated samples 4 days after infestation.

Spodoptera littoralis = assay: Activity against Spodoptera littoralis (Egyptian cotton leaf worm), cotton leaf discs; conditions: foliar, 72 h, application rate 200 ppm, L1 larvae, 3 days after infestation, read-out: control (mortality, anti-feeding effect or growth inhibition)
How it was run: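 Cotton leaf discs on agar sprayed with aqueous test solutions made from 10′000 ppm DMSO stocks, dried, then infested with five L1 larvae. Mortality, anti-feeding and growth inhibition scored versus untreated samples 3 days after infestation; control given when any category exceeds untreated.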

Euschistus heros = assay: Activity against Euschistus heros (neotropical brown stink bug), soybean leaf; conditions: 120 h, application rate 200 ppm, N-2 nymphs, 5 days after infestation, read-out: effect in at least one of the two categories (mortality or growth inhibition)
Description: Example B7: Activity Against Euschistus heros (Neotropical Brown Stink Bug)
Soybean leaf on agar in 24-well microtiter plates were sprayed with aqueous test solutions prepared from 10′000 ppm DMSO stock solutions. After drying the leaf were infested with N-2 nymphs. The samples were assessed for mortality and growth inhibition in comparison to untreated samples 5 days after infestation.

Myzus persicae [4] = assay: Activity against Myzus persicae (green peach aphid), feeding/contact activity, sunflower leaf discs; conditions: Myzus persicae, foliar, 144 h, application rate 200 ppm; feeding/contact; 6 days after infestation
Description: Example B4: Activity Against Myzus persicae (Green Peach Aphid) Feeding/Contact Activity
Sunflower leaf discs were placed on agar in a 24-well microtiter plate and sprayed with aqueous test solutions prepared from 10′000 ppm DMSO stock solutions. After drying, the leaf discs were infested with an aphid population of mixed ages. The samples were assessed for mortality 6 days after infestation.

Tetranychus urticae = assay: Activity against Tetranychus urticae (two-spotted spider mite), bean leaf discs; conditions: foliar, 192 h, application rate 200 ppm, mixed population (mobile stages), 8 days after infestation
Description: Example B10: Activity Against Tetranychus urticae (Two-Spotted Spider Mite)
Bean leaf discs on agar in 24-well microtiter plates were sprayed with aqueous test solutions prepared from 10′000 ppm DMSO stock solutions. After drying the leaf discs were infested with a mite population of mixed ages. The samples were assessed for mortality on mixed population (mobile stages) 8 days after infestation.

Plutella xylostella [5] = assay: Activity against Plutella xylostella (diamond back moth), artificial diet, eggs; conditions: 192 h, application rate 200 ppm, 8 days after infestation, read-out: effect in at least one of the two categories (mortality or growth inhibition)
How it was run: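 Artificial diet in wells treated with aqueous dilutions of 10′000 ppm DMSO stocks, dried, then infested with Plutella eggs. Mortality and growth inhibition scored against untreated samples 8 days after infestation.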

CCS(=N)(=O)c1cc(OC(C)(C)C#N)cnc1-c1nc2cc(C(F)(F)F)n(C3CC3)c(=O)c2n1C (racemic) [Compound P1, 2-[[6-[5-cyclopropyl-3-methyl-4-oxo-6-(trifluoromethyl)imidazo[4,5-c]pyridin-2-yl]-5-(ethylsulfonimidoyl)-3-pyridyl]oxy]-2-methyl-propanenitrile]
≥ 80%: percent effect (mortality or growth inhibition) at 200 ppm (Plutella xylostella [1]) | mortality at 200 ppm (Bemisia tabaci) | mortality at 200 ppm [2] | mortality at 24 ppm (Myzus persicae [3]) | percent effect (mortality or growth inhibition) at 200 ppm (Diabrotica balteata) | percent control (mortality, anti-feedant effect or growth inhibition) at 200 ppm (Spodoptera littoralis) | percent effect (mortality or growth inhibition) at 200 ppm (Euschistus heros) | mortality at 200 ppm (Myzus persicae [4])

CCS(=N)(=O)c1cc(OC(C)(C)C#N)cnc1-c1cn2cnc(SC(F)(F)F)cc2n1 (racemic) [Compound P7, 2-[[5-(ethylsulfonimidoyl)-6-[7-(trifluoromethylsulfanyl)imidazo[1,2-c]pyrimidin-2-yl]-3-pyridyl]oxy]-2-methyl-propanenitrile]
≥ 80%: mortality at 200 ppm (Tetranychus urticae) | mortality at 200 ppm (Bemisia tabaci) | percent effect (mortality or growth inhibition) at 200 ppm (Plutella xylostella [5]) | mortality at 200 ppm [2] | percent effect (mortality or growth inhibition) at 200 ppm (Diabrotica balteata) | percent effect (mortality or growth inhibition) at 200 ppm (Euschistus heros) | mortality at 200 ppm (Myzus persicae [4])

CCS(=N)(=O)c1cc(OC(C)(C)C#N)cnc1-c1nc2cc(C(F)(F)F)ncc2n1C (racemic) [Compound P13, 2-[[5-(ethylsulfonimidoyl)-6-[3-methyl-6-(trifluoromethyl)imidazo[4,5-c]pyridin-2-yl]-3-pyridyl]oxy]-2-methyl-propanenitrile]
≥ 80%: percent effect (mortality or growth inhibition) at 200 ppm (Plutella xylostella [1]) | mortality at 200 ppm (Tetranychus urticae) | mortality at 200 ppm (Bemisia tabaci) | mortality at 24 ppm (Myzus persicae [3]) | percent effect (mortality or growth inhibition) at 200 ppm (Diabrotica balteata) | percent control (mortality, anti-feedant effect or growth inhibition) at 200 ppm (Spodoptera littoralis) | percent effect (mortality or growth inhibition) at 200 ppm (Euschistus heros) | mortality at 200 ppm (Myzus persicae [4])

CCn1c(C(F)(F)F)cc2nc(-c3ncc(OC(C)(C)C#N)cc3S(=N)(=O)CC)n(C)c2c1=O (single isomer, unassigned) [Compound P19-A, 2-[[6-[5-ethyl-3-methyl-4-oxo-6-(trifluoromethyl)imidazo[4,5-c]pyridin-2-yl]-5-(ethylsulfonimidoyl)-3-pyridyl]oxy]-2-methyl-propanenitrile]
≥ 80%: mortality at 200 ppm (Tetranychus urticae) | mortality at 200 ppm (Bemisia tabaci) | percent effect (mortality or growth inhibition) at 200 ppm (Plutella xylostella [5]) | mortality at 24 ppm (Myzus persicae [3]) | percent effect (mortality or growth inhibition) at 200 ppm (Diabrotica balteata) | percent control (mortality, anti-feedant effect or growth inhibition) at 200 ppm (Spodoptera littoralis) | percent effect (mortality or growth inhibition) at 200 ppm (Euschistus heros) | mortality at 200 ppm (Myzus persicae [4])
